Test results reported in patent publication USRE38257E1, “Piperdine derivatives and hypotensives containing the same” (Ajinomoto Co., Inc., priority 1988, dated 2003).

Tested on: male spontaneously hypertensive rats
Experiment: Decrease in systolic blood pressure in spontaneously hypertensive rats after intravenous bolus injection, indirect (tail-cuff) method
Format: in vivo, rat
Conditions: for Decrease in systolic blood pressure (mmHg) time after administration (hour) 0.5: 0.5 hour after administration; for Decrease in systolic blood pressure (mmHg) time after administration (hour) 4: 4 hours after administration
Description: As test animals, four male spontaneously hypertensive rats (weight 400 to 440 g) that were sufficiently adapted for feeding and in which hypertension was confirmed were used.
Physiological saline aqueous solution containing 2.5% Nicolle and 2.5% ethanol of sample was intravenously administered by bolus injection at a dose of 1 ml per 1 kg of body weight. Systolic blood pressure after administration was measured by the indirect (tail-cuff) method.

[1] = dose 10 mg/kg i.v. bolus, hydrochloride, 10 mg/kg

| Compound | Decrease in systolic blood pressure (mmHg) time after administration (hour) 0.5 (dose 10 mg/kg i.v. bolus) | Decrease in systolic blood pressure (mmHg) time after administration (hour) 4 (dose 10 mg/kg i.v. bolus) | Decrease in systolic blood pressure (mmHg) time after administration (hour) 0.5 (dose 3 mg/kg i.v. bolus) | Decrease in systolic blood pressure (mmHg) time after administration (hour) 4 (dose 3 mg/kg i.v. bolus) | further results |
| --- | --- | --- | --- | --- | --- |
| O=C(Cc1ccc(F)cc1)N1CCC(=C2c3ccccc3C=Cc3ccccc32)CC1 [Example 191, 4-(5H-Dibenzo[a,d]cyclohepten-5-ylidene)-1-(2-(4-fluorophenyl)acetyl)piperidine] | −29 mmHg | −20 mmHg |  |  |  |
| Cl.Cl.Nc1cccc(CN2CCC(=C3c4ccccc4C=Cc4ccccc43)CC2)c1 [Example 139, 1-(3-Aminobenzy)-4-(5H-Dibenzo[a,d]cyclohepten-5-ylidene)piperidine dihydrochloride] | −139 mmHg | −89 mmHg |  |  |  |
| Cl.Fc1c(F)c(F)c(CN2CCC(=C3c4ccccc4C=Cc4ccccc43)CC2)c(F)c1F [Example 120, 4-(5H-Dibenzo[a,d]cyclohepten-5-ylidene)-1-pentafluorobenzylpiperidine hydrochloride] |  |  | −17 mmHg | −12 mmHg |  |
| CC(=O)Nc1ccccc1C=CCN1CCC(=C2c3ccccc3C=Cc3ccccc32)CC1.Cl [Example 304, 1-(2-Acetylaminocinnamyl)-4-(5H-dibenzo[a,d]cyclohepten-5-ylidene)-1-piperidine hydrochloride] | −49 mmHg | −5 mmHg |  |  |  |
| Cl.O=[N+]([O-])c1cccc(CN2CCC(=C3c4ccccc4C=Cc4ccccc43)CC2)c1 [Example 142, 4-(5H-Dibenzo[a,d]cyclohepten-5-ylidene)-1-(3-nitrobenzyl)piperidine hydrochloride] | −43 mmHg | 0 mmHg |  |  |  |
| 4-(2-(4-(5H-Dibenzo[a,d]cyclohepten-5-ylidene)-1-piperidinyl)-1-ehtyl)-2,4,5,6-tetramethyl-1,4-dihydropyridino-3,5-dicarboxylate hydrochloride [Example 311] | −90 mmHg | −18 mmHg |  |  |  |
| COC(=O)c1ccc(C=CCN2CCC(=C3c4ccccc4C=Cc4ccccc43)CC2)cc1.Cl [Example 376, 4-(5H-Dibenzo[a,d]cyclohepten-5-ylidene)-1-(4-methoxycarbonylcinnamyl)piperidine hydrochloride] |  |  | −106 mmHg | −77 mmHg |  |
| CC(=O)N1CCCCC1CCCN1CCC(=C2c3ccccc3C=Cc3ccccc32)CC1.Cl (stereo not shown) [Example 294, 1-(N-Acetyl-2-piperidinyl)-3-(4-(5H-Dibenzo[a,d]cyclohepten-5-ylidene)-1-piperidinyl)propane hydrochloride] |  |  | −17 mmHg | 7 mmHg |  |
| COC1CCC(CCCN2CCC(=C3c4ccccc4C=Cc4ccccc43)CC2)CC1.Cl (stereo not shown) [Example 324, 1-(1-(4-Methoxy)cyclohecyl)-3-(4-(5H-Dibenzo[a,d]cyclohepten-5-ylidene)-1-piperidinyl)propane hydrochloride] | −137 mmHg | −46 mmHg |  |  |  |
| Cl.O=C(CCCN1CCC(=C2c3ccccc3C=Cc3ccccc32)CC1)N1CCCCC1 [Example 203, 1-(4-(4-(5H-Dibenzo[a,d]cyclohepten-5-ylidene)-1-piperidinyl)butanoyl)piperidine hydrochloride] |  |  | −123 mmHg | −58 mmHg |  |
| Cl.O=[N+]([O-])c1cccc(C=CCN2CCC(=C3c4ccccc4C=Cc4ccccc43)CC2)c1 [Example 306, 4-(5H-Dibenzo[a,d]cyclohepten-5-ylidene)-1-(3-nitrocinnamyl)piperidine hydrochloride] | −138 mmHg | −37 mmHg |  |  |  |
| C1=Cc2ccccc2C(=C2CCN(Cc3cc4ccccc4[nH]3)CC2)c2ccccc21.Cl [Example 385, 4-(5H-Dibenzo[a,d]cyclohepten-5-ylidene)-1-(2-indolylmethyl)piperidine hydrochloride] | −123 mmHg | −96 mmHg |  |  |  |
| Cl.Nc1ccc(C=CCN2CCC(=C3c4ccccc4C=Cc4ccccc43)CC2)cc1 [Example 231, 1-(4-Aminocinnamyl)-4-(5H-dibenzo[a,d]cyclohepten-5-ylidene)piperidine hydrochloride] |  |  | −132 mmHg | −115 mmHg |  |
| Cl.N#CCCCN1CCC(=C2c3ccccc3C=Cc3ccccc32)CC1 [Example 165, 1-Cyano-3-[4-(5H-dibenzo[a,d]cyclohepten-5-ylidene)-1-piperidinyl)propane hydrochloride] |  |  |  |  | Decrease in systolic blood pressure (mmHg) time after administration (hour) 0.5 [1]: −22 mmHg; Decrease in systolic blood pressure (mmHg) time after administration (hour) 4 [1]: 12 mmHg |
| COc1cccc(CCCN2CCC(=C3c4ccccc4C=Cc4ccccc43)CC2)c1OC.Cl [Example 286, 3-(4-(5H-Dibenzo[a,d]cyclohepten-5-ylidene)-1-piperidinyl)-1-(2,3-dimethoxyphenyl)propane hydrochloride] | −134 mmHg | −40 mmHg |  |  |  |
| CCOC(=O)c1ccc(C=CCN2CCC(=C3c4ccccc4C=Cc4ccccc43)CC2)cc1.Cl [Example 382, 4-(5H-Dibenzo[a,d]cyclohepten-5-ylidene)-1-(4-ethoxycarbonylcinnamyl)piperidine hydrochloride] |  |  | −129 mmHg | −74 mmHg |  |
| Cl.O=[N+]([O-])c1ccc(CCCN2CCC(=C3c4ccccc4C=Cc4ccccc43)CC2)cc1 [Example 247, 3-(4-(5H-Dibenzo[a,d]cyclohepten-5-ylidene)-1-piperidinyl)-1-(4-notrophenyl)propane hydrochloride] | −119 mmHg | −40 mmHg |  |  |  |
| CC(=O)Nc1cccc2c1CC(CN1CCC(=C3c4ccccc4C=Cc4ccccc43)CC1)C2.Cl (stereo not shown) [Example 331, 4′Acetylamino-2(4-(5H-Dibenzo[a,d]cyclohepten-5-ylidene)-1-Piperidinyl)methylindan hydrochloride] | −62 mmHg | −14 mmHg |  |  |  |
| C1=Cc2ccccc2C(=C2CCN(CCC3CCCCC3)CC2)c2ccccc21.Cl [Example 8, 1-Cyclohexyl-2-(4-(5H-dibenzo[a,d]cyclohepten-5-ylidene)-1-piperidinyl)ethane hydrochloride] | −95 mmHg | −21 mmHg |  |  |  |
| Cl.NS(=O)(=O)c1ccc(C=CCN2CCC(=C3c4ccccc4C=Cc4ccccc43)CC2)cc1 [Example 386, 1-(4-Aminosulfonylcinnamyl)-4-(5H-Dibenzo[a,d]cyclohepten-5-ylidene)piperidine hydrochloride] | −83 mmHg | −96 mmHg |  |  |  |
| COc1cc(C=CCN2CCC(=C3c4ccccc4C=Cc4ccccc43)CC2)cc(OC)c1.Cl [Example 345, 4-(5H-Dibenzo[a,d]cyclohepten-5-ylidene)-1-(3,5-dimethoxycinnamyl)piperidine hydrochloride] |  |  | −120 mmHg | −95 mmHg |  |
| Cl.O=[N+]([O-])c1ccccc1C=CCN1CCC(=C2c3ccccc3C=Cc3ccccc32)CC1 [Example 230, 4-(5H-Dibenzo[a,d]cyclohepten-5-ylidene)-1-(2-nitrocinnamyl)piperidine hydrochloride] |  |  | −131 mmHg | −91 mmHg |  |
| CC(=O)Nc1cccc(CCCN2CCC(=C3c4ccccc4C=Cc4ccccc43)CC2)c1.Cl [Example 316, 1-(3-Acetylaminophenyl)-3-(4-(5H-dibenzo[a,d]cyclohepten-5-ylidene)-1-piperidinyl)propane hydrochloride] |  |  |  |  | Decrease in systolic blood pressure (mmHg) time after administration (hour) 0.5 (dose 1 mg/kg i.v. bolus): −100 mmHg; Decrease in systolic blood pressure (mmHg) time after administration (hour) 4 (dose 1 mg/kg i.v. bolus): 8 mmHg |
| COc1cc(C=CCN2CCC(=C3c4ccccc4C=Cc4ccccc43)CC2)ccc1[N+](=O)[O-].Cl [Example 387, 4-(5H-Dibenzo[a,d]cyclohepten-5-ylidene)-1-(3-methoxy-4-nitrocinnamyl)piperidine hydrochloride] | −112 mmHg | −50 mmHg |  |  |  |
| Cl.N#CC(CCCCl)(CCCN1CCC(=C2c3ccccc3C=Cc3ccccc32)CC1)c1ccccc1 (stereo not shown) [Example 52, 2-(3-Chloropropyl)-5-(4-(5H-dibenzo[a,d]cyclohepten-5-ylidene)-1-piperidinyl)-2-phenylvaleronitrile hydrochloride] | −23 mmHg | −9 mmHg |  |  |  |
| O=C(O)CCCN1CCC(=C2c3ccccc3C=Cc3ccccc32)CC1 [Example 200] | −10 mmHg | −24 mmHg |  |  |  |
